Experimental data taken from patent publication US20150105252A1, “SUBSTITUTED PYRAZOLES AS HERBICIDES” (E I DU PONT DE NEMOURS AND COMPANY, priority 2013, published 2015).

Key:
[1] = tested on: pigweed; assay: Test A preemergence; assay type: in vivo, Amaranthus retroflexus; settings: preemergence
Summary of the method: (§1)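 Greenhouse test in loam soil/sand blend; compounds formulated in non-phytotoxic solvent with surfactant, applied as preemergence directed soil spray or postemergence to plants 2–10 cm tall at one- to two-leaf stage. Injury rated visually versus untreated controls after approximately 10 days on a 0 (no effect) to 100 (complete control) scale.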

[2] = tested on: wheat; assay: Test A postemergence; assay type: in vivo, Triticum aestivum
Summary of the method: as §1

[3] = tested on: barnyardgrass; assay: Test C preemergence; assay type: in vivo, Echinochloa crus-galli; settings: for Plant response rating (scale of 0 to 100), Barnyardgrass: 250 g ai/ha
Summary of the method: (§2)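 Visual control ratings on a 0–100 scale (100 = complete control) made against untreated controls after 13 to 15 days in greenhouse. Compounds applied in surfactant-containing solvent mixture, either preemergence to loam/sand-sown seeds or postemergence to 1- to 4-leaf plants (2–18 cm) in peat medium.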

[4] = tested on: waterhemp; assay: Test C preemergence; assay type: in vivo, Amaranthus rudis; settings: for Plant response rating (scale of 0 to 100), Waterhemp: 250 g ai/ha
Text: (§3) Seeds of plant species selected from blackgrass (Alopecurus myosuroides), ryegrass, Italian (Italian ryegrass, Lolium multiflorum), wheat (winter wheat, Triticum aestivum), galium (catchweed bedstraw, Galium aparine), corn (Zea mays), crabgrass, large (large crabgrass, Digitaria sanguinalis), foxtail, giant (giant foxtail, Setaria faberii), johnsongrass (Sorghum halepense), lambsquarters (Chenopodium album), morningglory (Ipomoea coccinea), nutsedge, yellow (yellow nutsedge, Cyperus esculentus), pigweed (redroot pigweed, Amaranthus retroflexus), ragweed (common ragweed, Ambrosia elation), soybean (Glycine max), barnyardgrass (Echinochloa crus-galli), oilseed rape (Brassica napus), waterhemp (common waterhemp, Amaranthus rudis), oat, wild (wild oat, Avena fatua), kochia (Kochia scoparia), Surinam grass (Brachiaria decumbens), foxtail, green (green foxtail, Setaria viridis), goosegrass (Eleusine indica), bromegrass, downy (downy bromegrass, Bromus tectorum), nightshade (eastern black nightshade, Solanum ptycanthum), cocklebur (common cocklebur, Xanthium strumarium), cupgrass, woolly (woolly cupgrass, Eriochloa villosa), bermudagrass (Cynodon dactylon), sunflower, (common oilseed sunflower, Helianthus annuus), Russian thistle (Salsola kali), and velvetleaf (Abutilon theophrasti) were planted into a blend of loam soil and sand and treated preemergence with test chemicals formulated in a non-phytotoxic solvent mixture which included a surfactant.
(§4) At the same time, plants selected from these crop and weed species and also chickweed (common chickweed, Stellaria media), canarygrass (littleseed canarygrass, Phalaris minor), and deadnettle (henbit deadnettle, Lamium amplexicaule), were planted in pots containing Redi-Earth® planting medium (Scotts Company, 14111 Scottslawn Road, Marysville, Ohio 43041) comprising spaghnum peat moss, vermiculite, wetting agent and starter nutrients and treated with postemergence applications of test chemicals formulated in the same manner. Plants ranged in height from 2 to 18 cm (1- to 4-leaf stage) for postemergence treatments. Treated plants and controls were maintained in a greenhouse for 13 to 15 days, after which time all species were compared to controls and visually evaluated. Plant response ratings, summarized in Table C, are based on a scale of 0 to 100 where 0 is no effect and 100 is complete control. A dash (-) response means no test result.

[5] = tested on: velvetleaf; assay: Test C preemergence; assay type: in vivo, Abutilon theophrasti; settings: for Plant response rating (scale of 0 to 100), Velvetleaf: 250 g ai/ha
Text: as §3, §4

[6] = tested on: johnsongrass; assay: Test C preemergence; assay type: in vivo, Sorghum halepense; settings: for Plant response rating (scale of 0 to 100), Johnsongrass: 250 g ai/ha
Summary of the method: as §2

[7] = tested on: corn; assay: Test C preemergence; assay type: in vivo, Zea mays; settings: for Plant response rating (scale of 0 to 100), Corn: 250 g ai/ha
Text: as §3, §4

[8] = tested on: crabgrass, large; assay: Test C preemergence; assay type: in vivo, Digitaria sanguinalis; settings: for Plant response rating (scale of 0 to 100), Crabgrass, Large: 250 g ai/ha
Summary of the method: as §2

[9] = tested on: morningglory; assay: Test C preemergence; assay type: in vivo, Ipomoea coccinea; settings: for Plant response rating (scale of 0 to 100), Morningglory: 250 g ai/ha
Summary of the method: as §2

[10] = tested on: corn; assay: Test A preemergence; assay type: in vivo, Zea mays; settings: preemergence
Summary of the method: as §1

[11] = tested on: foxtail, giant; assay: Test A preemergence; assay type: in vivo, Setaria faberii; settings: preemergence
Summary of the method: as §1

[12] = tested on: wheat; assay: Test C preemergence; assay type: in vivo, Triticum aestivum; settings: for Plant response rating (scale of 0 to 100), Wheat: 250 g ai/ha
Text: as §3, §4

[13] = tested on: pigweed; assay: Test C preemergence; assay type: in vivo, Amaranthus retroflexus; settings: for Plant response rating (scale of 0 to 100), Pigweed: 250 g ai/ha
Text: as §3, §4

[14] = 125 g ai/ha, visual injury, 0 to 100 scale, approx. 10 days
[15] = 500 g ai/ha, visual injury after approx. 10 days, 0 to 100 scale (0 no effect, 100 complete control)
[16] = Postemergence, 500 g ai/ha, visual rating after approx. 10 days, 0 to 100 scale (0 no effect, 100 complete control)
[17] = postemergence, 125 g ai/ha, about 10 days, visual rating on 0 to 100 scale (0 no effect, 100 complete control)
[18] = preemergence, 31 g ai/ha, scale 0 to 100 (0 no effect, 100 complete control), 13 to 15 days
[19] = preemergence, 62 g ai/ha, 13 to 15 days, scale 0 to 100, 0 = no effect, 100 = complete control
[20] = preemergence, 125 g ai/ha, scale 0 to 100, 0 is no effect, 100 is complete control
[21] = preemergence, 31 g ai/ha, visual rating, scale 0 to 100 (0 no effect, 100 complete control), 13 to 15 days
[22] = Preemergence, 16 g ai/ha, scale 0 to 100

CCCc1cc(C(=O)NCC)nn1Cc1ccnc(C(F)(F)F)c1 [Compound 95]
Pigweed plant response rating [1, 14]: 100 | Pigweed plant response rating [1, 15]: 100 | Wheat plant response rating [2, 16]: 90 | Wheat plant response rating [2, 17]: 80 | Plant response rating (scale of 0 to 100), Barnyardgrass ([3]; Preemergence): 100 | Barnyardgrass plant response rating [3, 18]: 100 | Plant response rating, Barnyardgrass [3, 19]: 100 | Barnyardgrass plant response rating [3, 20]: 100 | Plant response rating (scale of 0 to 100), Waterhemp ([4]; Preemergence): 100 | Waterhemp plant response rating [4, 21]: 100 | Plant response rating, Waterhemp [4, 19]: 100 | Waterhemp plant response rating [4, 20]: 100 | Plant response rating (scale of 0 to 100), Velvetleaf ([5]; Preemergence): 100 | Velvetleaf plant response rating [5, 21]: 50 | Plant response rating, Velvetleaf [5, 19]: 100 | Velvetleaf plant response rating [5, 20]: 100 | Plant response rating (scale of 0 to 100), Johnsongrass ([6]; Preemergence): 100 | Johnsongrass plant response rating [6, 21]: 60 | Plant response rating, Johnsongrass [6, 19]: 85 | Johnsongrass plant response rating [6, 20]: 95 | Plant response rating (scale of 0 to 100), Corn ([7]; Preemergence): 95 | Corn plant response rating [7, 21]: 35 | Plant response rating, Corn [7, 19]: 50 | Corn plant response rating [7, 20]: 80 | Plant response rating (scale of 0 to 100), Crabgrass, Large ([8]; Preemergence): 100 | Crabgrass, Large plant response rating [8, 21]: 98 | Plant response rating, Crabgrass, Large [8, 19]: 98 | Crabgrass, Large plant response rating [8, 20]: 98 | Plant response rating (scale of 0 to 100), Morningglory ([9]; Preemergence): 100 | Morningglory plant response rating [9, 21]: 100 | Plant response rating, Morningglory [9, 19]: 100 | Morningglory plant response rating [9, 20]: 100 | Corn plant response rating [10, 14]: 50 | Corn plant response rating [10, 15]: 90 | Foxtail, Giant plant response rating [11, 14]: 100 | Foxtail, Giant plant response rating [11, 15]: 100 | Plant response rating (scale of 0 to 100), Wheat ([12]; Preemergence): 90 | Wheat plant response rating [12, 21]: 5 | Plant response rating, Wheat [12, 19]: 55 | Wheat plant response rating [12, 20]: 60 | Plant response rating (scale of 0 to 100), Pigweed ([13]; Preemergence): 100 | Pigweed plant response rating [13, 21]: 100 | Plant response rating, Pigweed [13, 19]: 100 | Pigweed plant response rating [13, 20]: 100

CCc1cc(C(=O)NC2CC2)nn1Cc1ccnc(OC(F)F)c1 [Compound 98]
Pigweed plant response rating [1, 14]: 100 | Pigweed plant response rating [1, 15]: 100 | Wheat plant response rating [2, 16]: 80 | Wheat plant response rating [2, 17]: 70 | Plant response rating (scale of 0 to 100), Barnyardgrass ([3]; Preemergence): 100 | Barnyardgrass plant response rating [3, 18]: 30 | Plant response rating, Barnyardgrass [3, 19]: 100 | Barnyardgrass plant response rating [3, 20]: 100 | Plant response rating (scale of 0 to 100), Waterhemp ([4]; Preemergence): 100 | Waterhemp plant response rating [4, 21]: 98 | Plant response rating, Waterhemp [4, 19]: 98 | Waterhemp plant response rating [4, 20]: 100 | Plant response rating (scale of 0 to 100), Velvetleaf ([5]; Preemergence): 100 | Velvetleaf plant response rating [5, 21]: 100 | Plant response rating, Velvetleaf [5, 19]: 100 | Velvetleaf plant response rating [5, 20]: 100 | Plant response rating (scale of 0 to 100), Johnsongrass ([6]; Preemergence): 100 | Johnsongrass plant response rating [6, 21]: 65 | Plant response rating, Johnsongrass [6, 19]: 70 | Johnsongrass plant response rating [6, 20]: 100 | Plant response rating (scale of 0 to 100), Corn ([7]; Preemergence): 95 | Corn plant response rating [7, 21]: 35 | Plant response rating, Corn [7, 19]: 45 | Corn plant response rating [7, 20]: 90 | Plant response rating (scale of 0 to 100), Crabgrass, Large ([8]; Preemergence): 100 | Crabgrass, Large plant response rating [8, 21]: 98 | Plant response rating, Crabgrass, Large [8, 19]: 100 | Crabgrass, Large plant response rating [8, 20]: 100 | Plant response rating (scale of 0 to 100), Morningglory ([9]; Preemergence): 100 | Morningglory plant response rating [9, 21]: 45 | Plant response rating, Morningglory [9, 19]: 95 | Morningglory plant response rating [9, 20]: 100 | Corn plant response rating [10, 14]: 70 | Corn plant response rating [10, 15]: 80 | Foxtail, Giant plant response rating [11, 14]: 100 | Foxtail, Giant plant response rating [11, 15]: 100 | Plant response rating (scale of 0 to 100), Wheat ([12]; Preemergence): 90 | Wheat plant response rating [12, 21]: 30 | Plant response rating, Wheat [12, 19]: 45 | Wheat plant response rating [12, 20]: 70 | Plant response rating (scale of 0 to 100), Pigweed ([13]; Preemergence): 100 | Pigweed plant response rating [13, 21]: 100 | Plant response rating, Pigweed [13, 19]: 100 | Pigweed plant response rating [13, 20]: 100

CCc1cc(C(=O)NOC(C)C)nn1Cc1ccnc(C(F)(F)F)c1 [Compound 101]
Pigweed plant response rating [1, 14]: 100 | Pigweed plant response rating [1, 15]: 100 | Wheat plant response rating [2, 16]: 100 | Wheat plant response rating [2, 17]: 80 | Plant response rating, Barnyardgrass [3, 22]: 5 | Barnyardgrass plant response rating [3, 18]: 75 | Plant response rating, Barnyardgrass [3, 19]: 100 | Barnyardgrass plant response rating [3, 20]: 100 | Plant response rating, Waterhemp [4, 22]: 85 | Waterhemp plant response rating [4, 21]: 95 | Plant response rating, Waterhemp [4, 19]: 100 | Waterhemp plant response rating [4, 20]: 100 | Plant response rating, Velvetleaf [5, 22]: 0 | Velvetleaf plant response rating [5, 21]: 35 | Plant response rating, Velvetleaf [5, 19]: 75 | Velvetleaf plant response rating [5, 20]: 100 | Plant response rating, Johnsongrass [6, 22]: 0 | Johnsongrass plant response rating [6, 21]: 20 | Plant response rating, Johnsongrass [6, 19]: 40 | Johnsongrass plant response rating [6, 20]: 75 | Plant response rating, Corn [7, 22]: 0 | Corn plant response rating [7, 21]: 0 | Plant response rating, Corn [7, 19]: 95 | Corn plant response rating [7, 20]: 100 | Plant response rating, Crabgrass, Large [8, 22]: 65 | Crabgrass, Large plant response rating [8, 21]: 80 | Plant response rating, Crabgrass, Large [8, 19]: 100 | Crabgrass, Large plant response rating [8, 20]: 100 | Plant response rating, Morningglory [9, 22]: 40 | Morningglory plant response rating [9, 21]: 85 | Plant response rating, Morningglory [9, 19]: 100 | Morningglory plant response rating [9, 20]: 100 | Corn plant response rating [10, 14]: 70 | Corn plant response rating [10, 15]: 100 | Foxtail, Giant plant response rating [11, 14]: 100 | Foxtail, Giant plant response rating [11, 15]: 100 | Plant response rating, Wheat [12, 22]: 0 | Wheat plant response rating [12, 21]: 5 | Plant response rating, Wheat [12, 19]: 85 | Wheat plant response rating [12, 20]: 85 | Plant response rating, Pigweed [13, 22]: 20 | Pigweed plant response rating [13, 21]: 80 | Plant response rating, Pigweed [13, 19]: 90 | Pigweed plant response rating [13, 20]: 100
